The values below are quoted from earlier work in US20160128340A1, “Pest control formulation composed of Beauveria bassiana, Cold Pressed Neem Oil and Refined Pyrethrum Extract, and methods of making and using same” (priority 2014, published 2016).

This data set concerns Bemisia tabaci. The settings on record: Bemisia tabaci population collected in a floriculture greenhouse.
Regarding `Cc1c(COC(=O)[C@@H]2[C@H](/C=C(\Cl)C(F)(F)F)C2(C)C)cccc1-c1ccccc1` (racemic) [bifenthrin], the “resistance factor at LC50” value was 23 fold.

As for `O=[N+]([O-])NC1=NCCN1Cc1ccc(Cl)nc1` [imidacloprid], the “resistance factor at LC50” value is 730 fold.

As to `CCN(CC)c1nc(C)cc(OP(=S)(OC)OC)n1` [pirimiphos-methyl], the “resistance factor at LC50” value is 18 fold.

With `CC1(C)C(C=C(Cl)Cl)C1C(=O)OC(C#N)c1cccc(Oc2ccccc2)c1` (stereo not drawn) [α-cypermethrin], the “resistance factor at LC50” value is 80 fold.
